According to US8476298B2 (Exelixis, Inc., priority 2003, dated 2013):

Legend:
[1] = target: T1, KDR (baculovirus expressed human KDR kinase domain D807-V1356) (Homo sapiens, UniProt P35968); test: biochemical;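 also: Luciferase-coupled chemiluminescent kinase assay, activity read as percent ATP left after 4 h reaction at ambient temperature, ATP near KM, 10-point dose-response in 384-well plates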
T1 construct: human KDR kinase domain D807-V1356; host or cells: baculovirus expression

[2] = target: T2, Flt-3 (baculovirus expressed human Flt-3 kinase domain R571-S993) (Homo sapiens, UniProt P36888); test: biochemical; details: read-out: flt3 IC50;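 also: Luciferase-coupled chemiluminescent kinase assay, activity read as percent ATP left after a 3 h reaction at room temperature, ATP near KM, 10-point dose-response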
T2 construct: human Flt-3 kinase domain R571-S993; host or cells: baculovirus expression
T2 sequence (P36888 571-993): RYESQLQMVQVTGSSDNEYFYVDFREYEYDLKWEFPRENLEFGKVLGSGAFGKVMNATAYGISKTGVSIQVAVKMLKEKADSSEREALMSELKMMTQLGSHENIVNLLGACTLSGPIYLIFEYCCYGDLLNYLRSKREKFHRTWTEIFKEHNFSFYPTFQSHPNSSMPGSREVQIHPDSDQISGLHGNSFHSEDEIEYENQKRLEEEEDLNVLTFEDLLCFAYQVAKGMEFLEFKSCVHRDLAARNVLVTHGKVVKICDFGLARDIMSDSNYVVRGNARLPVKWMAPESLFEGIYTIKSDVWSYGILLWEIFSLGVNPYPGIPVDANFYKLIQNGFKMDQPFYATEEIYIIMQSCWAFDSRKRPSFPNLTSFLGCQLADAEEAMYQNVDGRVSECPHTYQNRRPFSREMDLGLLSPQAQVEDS

[3] = target: T3, c-Met (baculovirus expressed human c-Met kinase domain P948-S1343) (Homo sapiens, UniProt P08581); test: c-Met Luciferase-Coupled Chemiluminescent Kinase assay (LCCA); type: biochemical;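 also: kinase activity read as percent ATP left after reaction, by luciferase-luciferin chemiluminescence, with 1 µM ATP and 1 µM poly-EY substrate, 2 h at ambient temperature, 10-point dose-response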
T3 construct: human c-Met kinase domain P948-S1343; host or cells: baculovirus expression
T3 sequence (P08581 1011-1343 limits assumed): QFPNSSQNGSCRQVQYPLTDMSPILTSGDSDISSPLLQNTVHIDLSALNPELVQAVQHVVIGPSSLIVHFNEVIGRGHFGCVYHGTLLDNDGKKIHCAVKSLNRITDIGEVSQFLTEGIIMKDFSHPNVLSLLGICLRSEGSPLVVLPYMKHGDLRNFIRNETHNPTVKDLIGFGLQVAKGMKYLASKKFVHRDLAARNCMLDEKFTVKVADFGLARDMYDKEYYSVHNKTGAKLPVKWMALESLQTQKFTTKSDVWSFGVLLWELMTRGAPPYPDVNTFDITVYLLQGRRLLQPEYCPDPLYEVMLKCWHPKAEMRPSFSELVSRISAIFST

T1 sequence (P35968 807-1356): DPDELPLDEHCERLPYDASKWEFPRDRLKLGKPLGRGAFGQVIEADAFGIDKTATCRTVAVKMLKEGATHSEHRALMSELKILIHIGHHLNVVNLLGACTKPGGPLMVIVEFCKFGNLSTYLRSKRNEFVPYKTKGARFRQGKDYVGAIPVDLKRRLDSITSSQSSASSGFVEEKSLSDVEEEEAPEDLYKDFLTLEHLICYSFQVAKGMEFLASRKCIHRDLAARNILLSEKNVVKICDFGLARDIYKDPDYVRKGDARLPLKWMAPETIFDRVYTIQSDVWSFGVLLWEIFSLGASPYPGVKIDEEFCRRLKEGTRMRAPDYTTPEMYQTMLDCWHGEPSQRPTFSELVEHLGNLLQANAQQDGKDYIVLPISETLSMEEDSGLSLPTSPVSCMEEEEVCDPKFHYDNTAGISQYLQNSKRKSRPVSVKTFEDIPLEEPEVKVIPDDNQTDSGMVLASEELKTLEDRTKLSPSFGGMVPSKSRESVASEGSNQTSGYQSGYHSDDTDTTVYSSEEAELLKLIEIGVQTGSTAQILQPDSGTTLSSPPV

SMILES | IC50 [1] [nM] | IC50 [2] [nM] | IC50 [3] [nM]
COc1cc2c(Oc3ccc(NC(=O)[C@]4(C(=O)Nc5ccc(F)cc5)C[C@@H]4C)cc3F)ccnc2cc1OCCCN1CCNCC1 [Example 364, (1R,2S)-N-[3-fluoro-4-({6-(methyloxy)-7-[(3-piperazin-1-ylpropyl)oxy]quinolin-4-yl}oxy)phenyl]-N′-(4-fluorophenyl)-2-methylcyclopropane-1,1-dicarboxamide] | < 50 | < 50 | < 50
COc1cc2c(Oc3ccc(NC(=O)[C@@]4(C(=O)Nc5ccc(F)cc5)[C@H](C)[C@@H]4C)cc3F)ccnc2cc1OCCCN1CCOCC1 [Example 365, (1r,2R,3S)-N-[3-fluoro-4-({6-(methyloxy)-7-[(3-morpholin-4-ylpropyl)oxy]quinolin-4-yl}oxy)phenyl]-N′-(4-fluorophenyl)-2,3-dimethylcyclopropane-1,1-dicarboxamide] | 50 to 500 | 50 to 500 | < 50
COc1cc2c(Oc3ccc(NC(=O)[C@@]4(C(=O)Nc5ccc(F)cc5)[C@H](C)[C@@H]4C)cc3F)ccnc2cc1OCCCN1CCN(C)CC1 [Example 366, (1r,2R,3S)-N-{3-fluoro-4-[(6-(methyloxy)-7-{[3-(4-methylpiperazin-1-yl)propyl]oxy}quinolin-4-yl)oxy]phenyl}-N′-(4-fluorophenyl)-2,3-dimethylcyclopropane-1,1-dicarboxamide] | 50 to 500 | 50 to 500 | < 50
COc1cc2c(Oc3ccc(NC(=O)[C@@]4(C(=O)Nc5ccc(F)cc5)[C@H](C)[C@@H]4C)cc3F)ncnc2cc1OCCCN1CCOCC1 [Example 367, (1r,2R,3S)-N-[3-fluoro-4-({6-(methyloxy)-7-[(3-morpholin-4-ylpropyl)oxy]quinazolin-4-yl}oxy)phenyl]-N′-(4-fluorophenyl)-2,3-dimethylcyclopropane-1,1-dicarboxamide] | < 50 | 50 to 500 | 50 to 500
COc1cc2c(Oc3ccc(NC(=O)[C@@]4(C(=O)Nc5ccc(F)cc5)[C@H](C)[C@@H]4C)cc3F)ncnc2cc1OCCCN1CCN(C)CC1 [Example 368, (1r,2R,3S)-N-{3-fluoro-4-[(6-(methyloxy)-7-{[3-(4-methylpiperazin-1-yl)propyl]oxy}quinazolin-4-yl)oxy]phenyl}-N′-(4-fluorophenyl)-2,3-dimethylcyclopropane-1,1-dicarboxamide] | < 50 | 50 to 500 | < 50
COc1cc2c(Oc3ccc(NC(=O)C4(C(=O)Nc5ccc(F)cc5)CCC4)cc3F)ncnc2cc1OCCCN1CCOCC1 [Example 369, N-[3-fluoro-4-({6-(methyloxy)-7-[(3-morpholin-4-ylpropyl)oxy]quinazolin-4-yl}oxy)phenyl]-N′-(4-fluorophenyl)cyclobutane-1,1-dicarboxamide] | < 50 | 50 to 500 | 50 to 500
COc1cc2c(Oc3ccc(NC(=O)C4(C(=O)Nc5ccc(F)cc5)[C@H](C)[C@H]4C)cc3F)ccnc2cc1OCCCN1CCOCC1 (stereo partly drawn) [Example 370, (2R,3R)-N-[3-fluoro-4-({6-(methyloxy)-7-[(3-morpholin-4-ylpropyl)oxy]quinolin-4-yl}oxy)phenyl]-N′-(4-fluorophenyl)-2,3-dimethylcyclopropane-1,1-dicarboxamide] | < 50 | 50 to 500 | < 50
CCN(CC)CCCOc1cc2nccc(Oc3ccc(NC(=O)C4(C(=O)Nc5ccc(F)cc5)[C@H](C)[C@H]4C)cc3F)c2cc1OC (stereo partly drawn) [Example 371, (2R,3R)-N-(4-{[7-{[3-(diethylamino)propyl]oxy}-6-(methyloxy)quinolin-4-yl]oxy}-3-fluorophenyl)-N′-(4-fluorophenyl)-2,3-dimethylcyclopropane-1,1-dicarboxamide] | < 50 | 50 to 500 | < 50
CCN(CC)CCCOc1cc2nccc(Oc3ccc(NC(=O)C4(C(=O)Nc5ccc(F)cc5)CC4(C)C)cc3F)c2cc1OC (stereo not drawn) [Example 372, N-(4-{[7-{[3-(diethylamino)propyl]oxy}-6-(methyloxy)quinolin-4-yl]oxy}-3-fluorophenyl)-N′-(4-fluorophenyl)-2,2-dimethylcyclopropane-1,1-dicarboxamide] | < 50 | 50 to 500 | < 50

Continued, values first:

IC50 [1] [nM] | IC50 [2] [nM] | IC50 [3] [nM] | SMILES
< 50 | 500 to 5000 | < 50 | COc1cc2c(Oc3ccc(NC(=O)C4(C(=O)Nc5ccc(F)cc5)CC4(C)C)cc3F)ncnc2cc1OCCCN1CCOCC1 (stereo not drawn) [Example 373, N-[3-fluoro-4-({6-(methyloxy)-7-[(3-morpholin-4-ylpropyl)oxy]quinazolin-4-yl}oxy)phenyl]-N′-(4-fluorophenyl)-2,2-dimethylcyclopropane-1,1-dicarboxamide]
50 to 500 | 50 to 500 | < 50 | CCN(CC)CCCOc1cc2nccc(Oc3ccc(NC(=O)[C@@]4(C(=O)Nc5ccc(F)cc5)[C@H](C)[C@@H]4C)cc3F)c2cc1OC [Example 374, (1r,2R,3S)-N-(4-{[7-{[3-(diethylamino)propyl]oxy}-6-(methyloxy)quinolin-4-yl]oxy}-3-fluorophenyl)-N′-(4-fluorophenyl)-2,3-dimethylcyclopropane-1,1-dicarboxamide]
< 50 | 500 to 5000 | < 50 | CCN(CC)CCOc1cc2nccc(Oc3ccc(NC(=O)C4(C(=O)Nc5ccc(F)cc5)CC4(C)C)cc3F)c2cc1OC (stereo not drawn) [Example 375, N-(4-{[7-{[2-(diethylamino)ethyl]oxy}-6-(methyloxy)quinolin-4-yl]oxy}-3-fluorophenyl)-N′-(4-fluorophenyl)-2,2-dimethylcyclopropane-1,1-dicarboxamide]
50 to 500 | 50 to 500 | < 50 | CCN(CC)CCOc1cc2nccc(Oc3ccc(NC(=O)[C@@]4(C(=O)Nc5ccc(F)cc5)[C@H](C)[C@@H]4C)cc3F)c2cc1OC [Example 376, (1r,2R,3S)-N-(4-{[7-{[2-(diethylamino)ethyl]oxy}-6-(methyloxy)quinolin-4-yl]oxy}-3-fluorophenyl)-N′-(4-fluorophenyl)-2,3-dimethylcyclopropane-1,1-dicarboxamide]
< 50 | 50 to 500 | < 50 | COc1cc2c(Oc3ccc(NC(=O)C4(C(=O)Nc5ccc(F)cc5)CC4(C)C)cc3F)ccnc2cc1OCCCN1CCOCC1 (stereo not drawn) [Example 377, N-[3-fluoro-4-({6-(methyloxy)-7-[(3-morpholin-4-ylpropyl)oxy]quinolin-4-yl}oxy)phenyl]-N′-(4-fluorophenyl)-2,2-dimethylcyclopropane-1,1-dicarboxamide]
50 to 500 | 500 to 5000 | < 50 | CCN(CC)CCOc1cc2ncnc(Oc3ccc(NC(=O)C4(C(=O)Nc5ccc(F)cc5)CC4(C)C)cc3F)c2cc1OC (stereo not drawn) [Example 378, N-(4-{[7-{[2-(diethylamino)ethyl]oxy}-6-(methyloxy)quinazolin-4-yl]oxy}-3-fluorophenyl)-N′-(4-fluorophenyl)-2,2-dimethylcyclopropane-1,1-dicarboxamide]
< 50 | 500 to 5000 | < 50 | CCN(CC)CCCOc1cc2ncnc(Oc3ccc(NC(=O)C4(C(=O)Nc5ccc(F)cc5)CC4(C)C)cc3F)c2cc1OC (stereo not drawn) [Example 379, N-(4-{[7-{[3-(diethylamino)propyl]oxy}-6-(methyloxy)quinazolin-4-yl]oxy}-3-fluorophenyl)-N′-(4-fluorophenyl)-2,2-dimethylcyclopropane-1,1-dicarboxamide]
< 50 | 50 to 500 | < 50 | CCN(CC)CCCOc1cc2ncnc(Oc3ccc(NC(=O)C4(C(=O)Nc5ccc(F)cc5)CCC4)cc3F)c2cc1OC [Example 380, N-(4-{[7-{[3-(diethylamino)propyl]oxy}-6-(methyloxy)quinazolin-4-yl]oxy}-3-fluorophenyl)-N′-(4-fluorophenyl)cyclobutane-1,1-dicarboxamide]
< 50 | 50 to 500 | < 50 | COc1cc2c(Oc3ccc(NC(=O)C4(C(=O)Nc5ccc(F)cc5)CCC4)cc3F)ncnc2cc1OCCCN1CCN(C)CC1 [Example 381, N-{3-fluoro-4-[(6-(methyloxy)-7-{[3-(4-methylpiperazin-1-yl)propyl]oxy}quinazolin-4-yl)oxy]phenyl}-N′-(4-fluorophenyl)cyclobutane-1,1-dicarboxamide]
< 50 | 50 to 500 | < 50 | COc1cc2c(Oc3ccc(NC(=O)C4(C(=O)Nc5ccc(F)cc5)CCC4)cc3F)ncnc2cc1OCCCN1CCNCC1 [Example 382, N-[3-fluoro-4-({6-(methyloxy)-7-[(3-piperazin-1-ylpropyl)oxy]quinazolin-4-yl}oxy)phenyl]-N′-(4-fluorophenyl)cyclobutane-1,1-dicarboxamide]
< 50 | 500 to 5000 | < 50 | COc1cc2c(Oc3ccc(NC(=O)C4(C(=O)Nc5ccc(F)cc5)[C@H](C)[C@H]4C)cc3F)ncnc2cc1OCCCN1CCOCC1 (stereo partly drawn) [Example 383, (2R,3R)-N-[3-fluoro-4-({6-(methyloxy)-7-[(3-morpholin-4-ylpropyl)oxy]quinazolin-4-yl}oxy)phenyl]-N′-(4-fluorophenyl)-2,3-dimethylcyclopropane-1,1-dicarboxamide]
